Measured values taken from US20260306463A1, “SIK INHIBITORS TO TREAT CHRONIC KIDNEY DISEASE” (The General Hospital Corporation, priority 2023, published 2026).
“Also recorded” adds a separate entry of the source.

How the values were obtained:
[1] = tested on: SIK isoforms (Sik1, SIK2, Sik3); test: SIK isoform expression in kidneys of adenine diet mice (immunoblot, RT-qPCR, RNAscope); assay type: in vivo, mouse
Method: FIGS. 2A-2C. SIK isoform expression in adenine-induced chronic kidney disease. (A) Kidney protein lysates were isolated and analyzed by imnunoblotting for SIK2 (top) and GAPDH (bottom). SIK2 protein levels are increased in adenine diet. (B) Whole kidney RNA from the indicated groups was analyzed by RT-qPCR for the indicated SIK isoform. (C) Kidney sections from control and CKD (6 weeks adenine diet) were stained using RNAscope (darker shade) for the indicated SIK isoform.
(§1) cDNA was prepared using Primescript RT kit (Takara Inc), with 750 ng RNA per reaction. RT-qPCR was performed by using PerfeCa® SYBR® Green FAstMix® ROX (Quanta bio) in the StepOnePlus™ Real-time PCR System (Applied Biosystems). Hmbs was used as a control housekeeping gene for mouse samples, and B-Actin was used for organoids, relative expression was calculated (2^-deltaCT method) and compared to the mean of control group if necessary. Primers used for RT-qPCR are listed in Table 2 (mouse primers) and Table 3 (human primers).
(§2) Snap-frozen kidneys were homogenized in NP-40 lysis buffer (FNN0021, Thermo) with using TissueLyserII at 30 Hz for 5 minutes. Samples were rotated at 4 deg for 20 minutes and frozen on dry ice and thawed. After centrifuging for 30 minutes at 4 deg, the supernatants were collected. After determining the protein concentration by Bradford assay, […] of protein was loaded for western blotting. For KGli cells, the cells were washed with cold PBS then scraped into TNT buffer (Tris-NaCl-Tween buffer, 20 mM Tris-HCl pH 8, 200 mM NaCl, 0.5% Triton X-100 containing 1X-protease inhibitor cocktail (Bimake Inc. 100X, Cat. #B14001), 1 mM DTT, 1 mM NaF, 1 mM Vanadate (New England Biolabs)). Next, samples were vortexed for 1 minute and centrifuged at 14,000g for 6 minutes at 4 deg, and the supernatant was collected.
For immunoblotting, the lysates were separated by SDS-PAGE (Bio-rad precast gels), and proteins were transferred to the nitrocellulose membranes. Then, the membranes were blocked in 5% milk in tris-buffered saline plus 0.05% Tween-20 (TBST) and incubated with primary antibody in 5% BSA-TBST overnight at 4° C. Next day, after washing, membranes were incubated with anti-rabbit HRP-coupled secondary antibody (1:2500, Cell Signaling Technology, 7074S) or anti-mouse HRP-coupled secondary antibody (1:2500, Cell Signaling, 7076S), and signals were detected with SuperSignal West Femto Maximum Sensitivity Substrate (Thermo scientific) using the iBright imager (ThermoFisher). […]
Hematoxylin and eosin (H+E) staining was performed on some sections using standard protocols and Masson's Trichome stain for fibrosis was performed according to the manufacturer's instructions (ab150686, abcam). […] Then, the signal was amplified (322310, ACD) and detected using Brown DAB kit (322310, ACD).

[2] = tested on: renal fibrosis, adenine-induced CKD mice; test: renal fibrosis in adenine CKD mice (trichrome, immunoblot, RT-qPCR); assay type: in vivo, mouse; details: adenine diet; SK-124 40 mg/kg oral
Method: FIGS. 3A-3C. SK-124 treatment reduces fibrosis in adenine-induced chronic kidney disease. (A) Representative trichrome stained sections from the indicated groups. Darker staining indicates fibrosis which is increased in vehicle-treated adenine diet mice and reduced by SK-124 treatment. (B) Kidney protein lysates were isolated and analyzed by immunoblotting for alpha-smooth muscle actin (αSMA) (top) and GAPDH (bottom). (C) Whole kidney RNA from the indicated groups was analyzed by RT-qPCR for the indicated fibrosis marker.
(§3) 7-week-old female CD1 mice were obtained from Charles River Laboratories (Wilmington, MA) and were fed on 0.2% adenine containing diet (TD.130900; 0.2% Adenine, 0.9% Phosphate, 0.5% Calcium; Envigo) or control diet (TD. 96348) for 6 or 8 weeks to induce chronic kidney disease (CKD). Mice were oral gavaged with 40 mg/kg SK-124, or intraperitonially injected with 80 μg/kg PTH, or treated with vehicle 5 days a week for the duration of the special diet.
as §1, §2
For immunoblotting, the lysates were separated by SDS-PAGE (Bio-rad precast gels), and proteins were transferred to the nitrocellulose membranes. Then, the membranes were blocked in 5% milk in tris-buffered saline plus 0.05% Tween-20 (TBST) and incubated with primary antibody in 5% BSA-TBST overnight at 4° C. Next day, after washing, membranes were incubated with anti-rabbit HRP-coupled secondary antibody (1:2500, Cell Signaling Technology, 7074S) or anti-mouse HRP-coupled secondary antibody (1:2500, Cell Signaling, 7076S), and signals were detected with SuperSignal West Femto Maximum Sensitivity Substrate (Thermo scientific) using the iBright imager (ThermoFisher). The antibodies used are: SIK2 (1:1000, Cell Signaling, 6919), GAPDH (1:1000, Cell Signaling, 2118), αSMA (1:1000, Invitrogen, 14-9760-82), pSMAD3 (1:1000, Cell Signaling, 9520), and SMAD⅔ (1:1000, Cell Signaling, 8685).
Hematoxylin and eosin (H+E) staining was performed on some sections using standard protocols and Masson's Trichome stain for fibrosis was performed according to the manufacturer's instructions (ab150686, abcam). Formalin-fixed paraffin embedded sections were also used for in situ hybridization according to the manufacturer instructions (ACDbio). Briefly, the sections were blocked with hydrogen peroxide for 10 minutes at room temperature, followed by antigen retrieval with Pepsin (R2283, Sigma-Aldrich) in humidified chamber in 40° C. HybEZ oven. The Sik1 (526411, ACD), Sik2 (526421, ACD), or Sik3 (526431, ACD) probe was added to the sections for 2 hours in the humidified chamber at 40° C. Then, the signal was amplified (322310, ACD) and detected using Brown DAB kit (322310, ACD). […]

[3] = tested on: whole kidney transcriptome; test: bulk RNA-sequencing of whole kidney, adenine CKD mice; assay type: in vivo, mouse; details: bulk RNA-seq; adenine vs control diet, or SK-124 vs vehicle in CKD mice
Method: FIGS. 6A-6F. The effects of SK-124 treatment at the transcriptomic level in adenine-induced mouse chronic kidney disease. RNA-seq was performed on whole kidney RNA samples (n=7/group) from FIG. 1. Volcano plot show gene regulated (>2-fold change, p(adj)<0.05) by CKD (versus control diet, A) or in CKD by SK-124 (versus vehicle control, B). In Volcano plot, representative fibrosis markers (Col3a1, Vim, Serpinel) and proximal tubule integrity (Lrp2. Atplai, and Hnf4a) are shown. Scatterplot (C) and heatmap (D) showing integration of individual RNA-seq comparisons. […] (E) Single cell RNA-sequencing was performed on dissociated kidneys from adenine diet fed mice treated with vehicle or SK-124 (n=4/group). […] (F) Relative cellularity of each annotated cluster is shown in pie chart format for adenine+vehicle (CKD-Veh) or adenine+SK-124 (CKD-SK-124) mice.
Isolated RNA samples from the mouse adenine diet study and human kidney organoid experiment were submitted to Novogene and bulk-RNA sequencing on NovaSeq X Plus Ilumina Novoseq Platform. Sequencing reads were mapped to the mouse reference genome (mm10/GRCm38) or human reference genome (GRCh38/hg38) using Salmon and differential gene expression analysis was performed using DESeq2.

[4] = tested on: mice with adenine diet-induced chronic kidney disease; test: 8 week adenine diet CKD study, SK-124 versus once daily PTH injections; assay type: in vivo, mouse (female CD1); details: 8 weeks
Method: FIGS. 4A-4D. […] (A) Study design: Female CD1 mice (n=8/group) were treated with control or 0.2% adenine diet starting at […] of age along with vehicle, PTH (80 mcg/kg/d, IP injections) or SK-124 (40 mg/kg) treatment by oral gavage once daily. Mice were treated for 8 weeks. (B, C) After 8 weeks of treatment, the indicated serum analyte was measured. (D) Whole kidney RNA from the indicated groups was analyzed by RT-qPCR for the indicated fibrosis marker gene.
as §3
For studies with Ubiquitin-Cre^ERt2; Sik2^ff; Sik3^ff mice (JAX #007001 for Ubiquitin-Cre^ERt2: RRID:MGL:5905012 for Sik2 foxed mice; and Sik3^tmla(EUCOMM)Hmgu mice (RRID:MGI:5085429) bred to PGK1 FLPo mice (JAX #011065) in order to generate Sik3 foxed mice), tamoxifen was injected (1 mg, IP, Q48 hours, 3 injections total) in all animals including Cre-negative control littermates housed in cages with Pure-o′Cel bedding at 5 weeks of age. Mice were then fed on 0.2% adenine diet from 6 weeks to 9 weeks of age. Mice were fasted for 6 hours and treated with SK-124 and PTH 4 hours and 2 hours before the sacrifice. Blood and spot urine samples were collected by cheek pouch bleeding and by pipetting urine collected on hydrophobic sand (Labsand; Braintree, MA). Kidneys were immediately snap-frozen in liquid nitrogen for TRIzol (Life Technologies)-Chloroform (Fischer Scientific) based RNA isolation or protein isolation, or fixed in 10% formalin at 4C for 24 hrs for histology. All serum and urine measurements were performed using commercial bioassay detection reagents listed in Table 1, following the manufacturers' instructions. Urine protein levels were measured by Bradford assay and normalized to urine creatinine.
as §1

human kidney organoids = test: cisplatin injury of human kidney organoids: immunostaining, organoid size; assay type: cell-based; details: intermittent cisplatin, 5 treatments
Method: FIG. 7. SK-124 preserves human kidney organoid integrity in cisplatin injury model. Human kidney organoids derived from H9 embryonic stem cells were treated with intermittent cisplatin (5 separate treatments) based on published protocols along with the indicated agent. Organoids were cryo-sectioned and immuno-stained with the indicated markers. The top panels show low power images and the bottom panels focus on regions of proximal tubule cells. The graph measures the mean diameter of organoids in the control (no cisplatin), cisplatin+DMSO, and cisplatin+SK-124 treatment groups.
BJFF human induced pluripotent stem cells (hPSCs) were maintained on Geltrexcoated (Thermo Fisher Scientific) plates using StemFit Basic04 Complete (Ajinomoto Co. Inc.) as previously reported(25). The cells were passaged weekly using Accutase (STEMCELL Technologies) for dissociation and Y27632 (Tocris) for adhesion. Directed differentiation of hPSCs into kidney organoids has been published elsewhere (29). Briefly, hPSCs were differentiated into metanephric mesenchyme cells on day 8 by a three-step directed differentiation protocol. Metanephric mesenchyme was transferred into suspension culture in 96-well ultralow adhesion plates (Coming) and further differentiated into kidney organoids, as previously reported(25). Quality control measures of SIX2 immunostaining on day 8 of differentiation and CDH1, LTL, PODXL, CD146, MEIS1/2/3, and SYTOX-blue staining on day 21 were performed on all batches of kidney organoids to limit batch-to-batch heterogeneity. Kidney organoids were maintained in 200 μl of basal media consisting of Advanced RPMI (Thermo Fisher Scientific) and GlutaMAX (Thermo Fisher Scientific) in 96-well plates, as previously reported. Media changes were conducted three times weekly with removal of 90 [l and addition of 100 μl of fresh basal media.
For cisplatin induced injury, day 49 organoids were treated with 5 μM cisplatin in basal media after full media change. After 24 hours, full media exchanges were performed. This 24-hour treatment was performed twice a week, on day 52-53, day 56-57, day 59-60, and day 63-64 as well, for a total of five cisplatin treatments. Samples were obtained for RT-qPCR and immunostaining immediately following each 24-hour treatment with cisplatin, and from corresponding controls.
Following the treatment, the organoids were collected and immediately fixed in 4% PFA in PBS for 1 hour at room temperature, submerged in 30% sucrose overnight at 4° C., then embedded in O.C.T. Compound (4585. Fisher HealthCare). Subsequently, […] frozen sections were prepared via cryo-sectioning by a cryostat. After 1 hr blocking at room temperature, the sections were treated overnight at 4° C. with primary antibodies in antibody dilution buffer (ADB) with biotinylated LTL (1:200, B-1325, Vector), rat anti-CDH1 (1:500, ab11512, Abcam), goat anti-PODXL (1:500, AF1658, R&D Systems), as well as the antibody of interest, either mouse anti-p21 (1:200, NBP2-43697, Novus Biologicals), or rabbit anti-γH2AX (1:100, 2577, Cell Signaling) antibodies. For the optimum labeling of LTL by biotin/streptavidin interaction, the Streptavidin/Biotin Blocking Kit (SP-2002, Vector Laboratories) was applied according to the manufacturer's instructions. After washing, the samples were stained for 1 hour at RT with the nuclear dye-SYTOX Blue (1:500. S 11348, Invitrogen) and the corresponding secondary antibodies in ADB such as streptavidin-AF750 (1:500, S21384, Invitrogen), donkey anti-rat IgG-AF594 (1:500, A21209, Invitrogen), donkey anti-goat IgG-AF555 (1:500, A21432, Invitrogen), and donkey anti-rabbit IgG-AF488 (1:500, A21206, Invitrogen) for γH2AX or donkey anti-mouse IgG-AF488 (1:500, A21202, Invitrogen) for p21 antibodies as well as mouse anti-Meisl/⅔ (1:200, sc-101850, SantaCruz) conjugated antibody, and slides were mounted with Vectashield antifade mounting medium (H1000, Vector Laboratories). […]

[5] = whole kidney RNA, RT-qPCR, 6 weeks adenine diet
[6] = SK-124 40 mg/kg oral gavage once daily, or PTH 80 mcg/kg/d IP

Compound | SIK2 protein level ([1]; kidney lysates, immunoblot, 0.2% adenine diet, 6 weeks) | Sik1 expression [1, 5] | Sik2 expression [1, 5] | Sik3 expression [1, 5] | fibrosis (trichrome staining) [2] | injury markers (Col3a1, Vim, Serpine1) [3] | markers of intact proximal epithelial cells (Lrp2, Atpla1, Hnf4a) / epithelial cell integrity [3] | CKD-MBD markers [4, 6] | kidney function [4, 6] | fibrosis marker gene expression ([4]; whole kidney RT-qPCR, SK-124 40 mg/kg oral, or PTH 80 mcg/kg/d IP) | patterns of cisplatin-induced injury (human kidney organoids)
Nc1ncnc2nc[nH]c12 [adenine] | increased; also recorded: robust SIK2 upregulation | increased | increased | trends towards increased | increased | upregulated | reduced | – | – | – | –
PTH: Human PTH1-34, dissolved in 10 mM acetic acid | – | – | – | – | – | – | – | did not cause these effects | did not cause these effects | did not cause these effects | minimal effects
